Key:
Assay in all cases: relative viability (nuclei count vs DMSO), 5 days (fraction); higher = more cells survive
[1] = compound: CC(O)(CS(=O)(=O)c1ccc(F)cc1)C(=O)Nc1ccc(C#N)c(C(F)(F)F)c1 [Bicalutamide] + C[C@@H](Oc1cc(-c2cnn(C3CCNCC3)c2)cnc1N)c1c(Cl)ccc(F)c1Cl [Crizotinib] (partner 1 µM)
How it was run: (§1)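 After 5 days of treatment, lung cancer cells in 1536-well plates were fixed and stained in a single step (final 0.05% Triton X-100, 1% formaldehyde, 1 ug/ml Hoechst) and their nuclei counted on 4× images. Treatment had been applied by pin tool the day after seeding as one drug alone or as a fixed anchor-drug dose with five library-drug doses (not always all listed) in √10 steps. Relative viability is the nuclei count of treated wells divided by that of vehicle wells, and values are medians of duplicate plates.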

[2] = compound: CC(O)(CS(=O)(=O)c1ccc(F)cc1)C(=O)Nc1ccc(C#N)c(C(F)(F)F)c1 [Bicalutamide] + O=C(c1cc(Cc2n[nH]c(=O)c3ccccc23)ccc1F)N1CCN(C(=O)C2CC2)CC1 [Olaparib] (partner 8 µM)
How it was run: as §1

[3] = compound: CC(O)(CS(=O)(=O)c1ccc(F)cc1)C(=O)Nc1ccc(C#N)c(C(F)(F)F)c1 [Bicalutamide] + Nc1ncn([C@H]2C[C@H](O)[C@@H](CO)O2)c(=O)n1 [Decitabine] (partner 2 µM)
How it was run: as §1

[4] = compound: CC(O)(CS(=O)(=O)c1ccc(F)cc1)C(=O)Nc1ccc(C#N)c(C(F)(F)F)c1 [Bicalutamide] + CC(C)C[C@H](NC(=O)[C@H](Cc1ccccc1)NC(=O)c1cnccn1)B(O)O [Bortezomib] (partner 0.002 µM)
How it was run: as §1

UMC-11
relative viability ([1]; first compound 0.08 µM): 0.69
relative viability ([1]; first compound 0.253 µM): 0.521
relative viability ([1]; first compound 0.8 µM): 0.643
relative viability ([1]; first compound 2.53 µM): 0.399
relative viability ([2]; first compound 0.08 µM): 0.386
relative viability ([2]; first compound 0.253 µM): 0.347
relative viability ([2]; first compound 0.8 µM): 0.406
relative viability ([2]; first compound 2.53 µM): 0.522
relative viability ([3]; first compound 0.08 µM): 0.535
relative viability ([3]; first compound 0.253 µM): 0.507
relative viability ([3]; first compound 0.8 µM): 0.623
relative viability ([3]; first compound 2.53 µM): 0.555
relative viability ([4]; first compound 0.08 µM): 0.758
relative viability ([4]; first compound 0.253 µM): 0.67
relative viability ([4]; first compound 0.8 µM): 0.762
relative viability ([4]; first compound 2.53 µM): 0.596
